The text below walks through data of patent US12662491B2 (Redona Therapeutics, Inc., priority 2020, dated 2026).

In the assay the target is T1, Zcchc11 enzyme (Homo sapiens, UniProt Q5TAX3).
T1 construct: made in house; host or cells: HEK293 cells (Zcchc11); E. coli Rosetta II (LIN28A)
T1 sequence (Q5TAX3 212-1420): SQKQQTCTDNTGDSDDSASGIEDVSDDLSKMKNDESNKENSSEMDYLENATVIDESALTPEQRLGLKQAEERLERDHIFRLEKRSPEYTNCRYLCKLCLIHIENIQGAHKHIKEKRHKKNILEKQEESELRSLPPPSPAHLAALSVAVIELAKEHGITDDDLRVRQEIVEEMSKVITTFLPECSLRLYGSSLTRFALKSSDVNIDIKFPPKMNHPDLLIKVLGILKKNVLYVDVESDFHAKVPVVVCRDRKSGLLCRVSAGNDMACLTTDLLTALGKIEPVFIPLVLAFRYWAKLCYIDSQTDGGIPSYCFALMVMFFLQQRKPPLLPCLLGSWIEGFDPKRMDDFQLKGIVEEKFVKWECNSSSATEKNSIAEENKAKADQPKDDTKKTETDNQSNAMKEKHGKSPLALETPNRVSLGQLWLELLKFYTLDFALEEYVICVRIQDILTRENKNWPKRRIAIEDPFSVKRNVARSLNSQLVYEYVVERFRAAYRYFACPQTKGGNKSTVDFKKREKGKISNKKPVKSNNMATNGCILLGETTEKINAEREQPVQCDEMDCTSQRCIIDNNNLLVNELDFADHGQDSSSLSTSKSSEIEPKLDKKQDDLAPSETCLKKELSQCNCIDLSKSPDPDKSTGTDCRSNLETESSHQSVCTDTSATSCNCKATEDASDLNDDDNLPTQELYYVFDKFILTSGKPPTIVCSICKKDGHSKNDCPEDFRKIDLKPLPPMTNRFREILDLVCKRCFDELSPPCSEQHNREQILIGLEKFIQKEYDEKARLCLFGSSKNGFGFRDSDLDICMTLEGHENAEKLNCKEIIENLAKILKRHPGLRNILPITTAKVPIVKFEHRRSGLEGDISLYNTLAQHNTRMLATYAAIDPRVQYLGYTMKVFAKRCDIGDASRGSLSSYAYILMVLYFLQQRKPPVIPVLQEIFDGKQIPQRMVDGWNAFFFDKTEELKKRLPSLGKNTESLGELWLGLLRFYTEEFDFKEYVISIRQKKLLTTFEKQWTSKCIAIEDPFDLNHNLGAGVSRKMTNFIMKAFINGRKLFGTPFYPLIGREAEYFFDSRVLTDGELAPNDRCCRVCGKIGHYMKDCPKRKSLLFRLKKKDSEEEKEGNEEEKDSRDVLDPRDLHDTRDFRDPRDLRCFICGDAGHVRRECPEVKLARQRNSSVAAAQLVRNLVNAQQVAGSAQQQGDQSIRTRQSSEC
Description: TUTase assay (Zcchc11 assay, Lin28a-dependent polyuridylation of pre-let-7). To be noted: read-out: Potency Lin28a-dep Z11 IC50. It counts as biochemical. An outline of the steps:
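Human Zcchc11 residues 212-1420 (HEK293-expressed, MBP tag cleaved, C-terminal FLAG) at 0.2 nM, with 10 nM full-length human LIN28A and 2 nM 5′-fluorescein pre-let-7, preincubated with compound 30 min at room temperature. Reaction started with 5 uM UTP plus 4 nM 3′-rhodamine A20 quench probe; fluorescein loss read kinetically, IC50 from initial rates.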

Where [1] appears, read: Lin28a-dependent Zcchc11 (Z11) TUTase assay.
Where [2] appears, read: Lin28a-dependent Zcchc11 (Z11) TUTase activity.

One may read the IC50 as the concentration at which inhibition is half-maximal.

Like-named read-outs stand apart in the source and are kept apart here.

With `COc1ccnc(OC[C@H]2C[C@H]3C[C@H]3N2c2nc3c(cc2F)c(=O)c(C(=O)O)cn3-c2ccc(N3CC(N(C)C)C3)nc2)c1Cl` [Example 678, 7-((1R,3R,5R)-3-(((3-chloro-4-methoxypyridin-2-yl)oxy)methyl)-2-azabicyclo[3.1.0]hexan-2-yl)-1-(6-(3-(dimethylamino)azetidin-1-yl)pyridin-3-yl)-6-fluoro-4-oxo-1,4-dihydro-1,8-naphthyridine-3-carboxylic acid], the IC50 under setting [1] was not above 1000 nM.

On to `COc1ccnc(OC[C@H]2C[C@H]3C[C@H]3N2c2nc3c(cc2Cl)c(=O)c(C(=O)O)cn3-c2ccc(N3CC(N(C)C)C3)nc2)c1Cl` [Example 679, 6-chloro-7-((1R,3R,5R)-3-(((3-chloro-4-methoxypyridin-2-yl)oxy)methyl)-2-azabicyclo[3.1.0]hexan-2-yl)-1-(6-(3-(dimethylamino)azetidin-1-yl)pyridin-3-yl)-4-oxo-1,4-dihydro-1,8-naphthyridine-3-carboxylic acid], for which the IC50 under setting [1] is not above 1000 nM.

`COc1ccnc(OC[C@H]2C[C@H]3C[C@H]3N2c2cc3c(cc2F)c(=O)c(C(=O)O)cn3-c2ccc(N3CC(N(C)C)C3)nc2)c1C` [Example 681, 1-(6-(3-(dimethylamino)azetidin-1-yl)pyridin-3-yl)-6-fluoro-7-((1R,3R,5R)-3-(((4-methoxy-3-methylpyridin-2-yl)oxy)methyl)-2-azabicyclo[3.1.0]hexan-2-yl)-4-oxo-1,4-dihydroquinoline-3-carboxylic acid]: under setting [1], the IC50 is not above 1000 nM.

For `COc1ccc(C)c(OC[C@H]2C[C@H]3C[C@H]3N2c2cc3c(cc2F)c(=O)c(C(=O)O)cn3-c2ccc(N3CC(N(C)C)C3)nc2)n1` [Example 682, 1-(6-(3-(dimethylamino)azetidin-1-yl)pyridin-3-yl)-6-fluoro-7-((1R,3R, 5R)-3-(((6-methoxy-3-methylpyridin-2-yl)oxy)methyl)-2-azabicyclo[3.1.0]hexan-2-yl)-4-oxo-1,4-dihydroquinoline-3-carboxylic acid], the IC50 under setting [1] was not above 1000 nM.

Consider `COc1ccnc(OC[C@H]2C[C@H]3C[C@H]3N2c2cc3c(cc2Cl)c(=O)c(C(=O)O)cn3-c2ccc(N3CC(N(C)C)C3)nc2)c1C` [Example 683, 6-chloro-1-(6-(3-(dimethylamino)azetidin-1-yl)pyridin-3-yl)-7-((1R,3R,5R)-3-(((4-methoxy-3-methylpyridin-2-yl)oxy)methyl)-2-azabicyclo[3.1.0]hexan-2-yl)-4-oxo-1,4-dihydroquinoline-3-carboxylic acid], for which the 50% inhibitory concentration (IC50) under setting [1] is not above 1000 nM.

`COc1ccc(Cl)c(OC[C@H]2[C@@H](OC)CCN2c2cc3c(cc2Cl)c(=O)c(C(=O)O)cn3-c2ccc(N3CC(N(C)C)C3)nc2)n1` [Example 684, 6-chloro-7-((2S,3S)-2-(((3-chloro-6-methoxypyridin-2-yl)oxy)methyl)-3-methoxypyrrolidin-1-yl)-1-(6-(3-(dimethylamino)azetidin-1-yl)pyridin-3-yl)-4-oxo-1,4-dihydroquinoline-3-carboxylic acid]: the IC50 under setting [1] is not above 1000 nM.

As to `COc1ccnc(OC[C@H]2C[C@H]3C[C@H]3N2c2cc3c(cc2Cl)c(=O)c(C(=O)O)cn3-c2ccc(N3CC(N(C)C)C3)nc2)c1F` [Example 685, 6-chloro-1-(6-(3-(dimethylamino)azetidin-1-yl)pyridin-3-yl)-7-((1R,3R,5R)-3-(((3-fluoro-4-methoxypyridin-2-yl)oxy)methyl)-2-azabicyclo[3.1.0]hexan-2-yl)-4-oxo-1,4-dihydroquinoline-3-carboxylic acid], under setting [1], the IC50 was not above 1000 nM.

As to `COc1ccnc(OC[C@H]2C[C@H]3C[C@H]3N2c2cc3c(cc2F)c(=O)c(C(=O)O)cn3-c2ccc(N3CC(N(C)C)C3)nc2)c1F` [Example 686, 1-(6-(3-(dimethylamino)azetidin-1-yl)pyridin-3-yl)-6-fluoro-7-((1R,3R, 5R)-3-(((3-fluoro-4-methoxypyridin-2-yl)oxy)methyl)-2-azabicyclo[3.1.0]hexan-2-yl)-4-oxo-1,4-dihydroquinoline-3-carboxylic acid], under setting [1], the concentration for half-maximal inhibition (IC50) is not above 1000 nM.

In the case of `CN(C)C1CN(c2ccc(-n3cc(C(=O)O)c(=O)c4cc(C#N)c(N5CCC[C@]5(C)COc5ncccc5F)cc43)cn2)C1` [Example 687, (R)-6-cyano-1-(6-(3-(dimethylamino)azetidin-1-yl)pyridin-3-yl)-7-(2-(((3-fluoropyridin-2-yl)oxy)methyl)-2-methylpyrrolidin-1-yl)-4-oxo-1,4-dihydroquinoline-3-carboxylic acid], the IC50 under setting [1] was not above 1000 nM.

Regarding `O=C(O)c1cn(-c2ccccc2)c2c(F)c(N3CCC[C@H]3COc3ccccn3)c(F)cc2c1=O` [a, (S)-6,8-difluoro-4-oxo-1-phenyl-7-(2-((pyridin-2-yloxy)methyl)pyrrolidin-1-yl)-1,4-dihydro-quinoline-3-carboxylic acid], under setting [2], the IC50 was in the range of 10000 to 50000 nM.

For “rac-6- chloro-7- ((2R,3S)-2- (((3- chloropyridin- 2- yl)oxy) methyl)-3- methyl- pyrrolidin-1- yl)-1-(6-(3- (dimethyl- amino) azetidin-1- yl)pyridin- 3-yl)-4- oxo-1,4- dihydro- quinoline-3- carboxylic acic [Compound 260]”, under setting [2], the IC50 is not above 1000 nM.
